# In patent US20160138057A1, “Methods for enhancing alpha-ketoglutarata production in Yarrowia lipolytica” (priority 2014, published 2016):
# Tests used:
# [1] = test system: recombinant Y. lipolytica (Y. lipolytica-GDH2); assay: Intracellular glutamate content of recombinant strain fermented with L-methionine imide; type: cell-based, Yarrowia lipolytica
# Experimental: Determination of GDH catalytic activity and intracellular amino acid content: cells were collected by centrifugation in the exponential growth phase and washed by 0.9% saline, then suspended by 10 mL buffer (0.1 M KH2PO4-K2HPO4, 1 mM EDTA, 0.01 mM DTT, pH 7.5). Pickling glass beads was added for grinding for 5 min at 4° C., and then centrifuged at 13000×g for 10 min. The supernatant was used for the determination of catalytic activity of GDH and the intracellular amino acid content.
# Intracellular glutamate and glutamine was determinated by the following steps: 200 μl cell disruption supernatant and 800 μL 5% trichloroacetic acid was sequentially added to an 1 mL EP tube and standed for 5 min. 1 mL sample was filtered by 0.22 μm aqueous filter head and then centrifuged at 10000 rpm for 10 min. The amino acid content of the treated sample was measured by HPLC.
# The HPLC conditions were as follows: pre-column derivatization of sample was carried out by […] (OPA) and 9-Fluorenylmethyl Chloroformate. […]
# The wild type Y. lipolytica WSH-Z06 and the recombinant strain Y. lipolytica-GDH2 were incubated in 500 mL flasks with 50 mL fermentation medium at 28° C., 200 rpm for 96 hours at the same time. […] The glutamate contents were quantified by the methods described above.
# [2] = test system: recombinant Y. lipolytica (Y. lipolytica-GDH2); assay: Extracellular α-KG accumulation of recombinant strain fermented with L-methionine imide; type: cell-based, Yarrowia lipolytica
# Experimental: Fermentation medium: 36.1 mg·L^−1 L-methionine imine, 100 g·L^−1 glycerol, 3 g·L^−1 (NH4)2SO4, 3 g·L^−1 KH2PO4, 1.2 g·L^−1 MgSO4·7H2O, 0.5 g·L^−1 NaCl, 0.1 g·L^−1 K2HPO4, 2×10^−7 g·L^−1 thiamine hydrochloride, pH 4.5, and then sterilized at 115° C. for 15 min. CaCO3 sterilized at 121° C. for 30 min was added to 20 g·L^−1 before inoculation.
# Extracellular α-KG was quantified by HPLC. Appropriate supernatant of fermentation broth centrifuged at 13000×g was diluted 50-fold with ultrapure water and filtrated by 0.22 μm filter for HPLC analysis. The column was Aminex HPX-87H ion exchange column and 5 mmol·L^−1 sulfuric acid solution (550 μL concentrated sulfuric acid volumed to 2 L) filtrated by 0.22 μm filter and degassed was used as mobile phase. The velocity of flow was 0.6 mL·min^−1 with a column temperature at 35° C. and a injection volume of 10 μL. The wavelength of UV detector was 210 nm.
# α-KG was produced as the method described above. The wild type Y. lipolytica WSH-Z06 and the recombinant strain Y. lipolytica-GDH2 were incubated in 500 mL flasks with 50 mL fermentation medium containing L-methionine imide at 28° C., 200 rpm for 144 hours at the same time to accumulate α-KG extracellular.
smiles,measurement,setting,value
CSCC[C@H](N)C(N)=O [L-methionine imide],content of glutamate intracellular,[1]; 0.2 mM L-methionine imide added during fermentation of the recombinant strain,0.99 μmol per mg dry cells weight (DCW)
same,increase of intracellular glutamate content,"[1]; 0.2 mM L-methionine imide, recombinant strain, versus wild type strain",86.3%
same,increase of extracellular α-KG accumulation,"[2]; 0.2 mM L-methionine imide, versus wild type strain",32.4%
same,accumulation of α-KG extracellular,"[2]; fermentation medium containing L-methionine imide (0.2 mM), 28° C., 200 rpm, 144 hours",19.2 g/L
